{
  "source": "patent US11453640B2",
  "about": "“Small molecules for disrupting the super elongation complex and inhibiting transcription elongation for cancer therapy” (NORTHWESTERN UNIVERSITY, priority 2018, dated 2022)",
  "key": {"[1]": {"tested_on": "AFF1 and AFF4 occupancy on chromatin", "test": "ChIP-seq of AFF1 and AFF4 chromatin occupancy in HEK293T cells", "type": "cell-based, human", "details": "6 hr", "text": "FIG. 1. Peptidomimetic identification of disruptors of the AFF4-CCNT1 interaction within the Super Elongation Complex. (A) Schematic for the identification of small molecule inhibitors of the AFF4-CCNT1 interaction using in silico high-throughput screening. Compounds from the ZINC database were docked with the AFF4-CCNT1 structure (4IMY) using a three-tier glide-docking algorithm, which led to 40 candidates. Residues forming the deep binding pocket of CCNT1 are labeled orange and residues of the AFF4 peptide are labeled red. (B) Validation screening identified KL-1 as a potential SEC disruptor using AlphaLISA screening. […] The Ki constants of both compounds were measured with the AlphaLISA assays. […] 5 μl, 10 and 20 μl cell lysates were loaded and the protein levels of AFF1, AFF4, CCNT1, CDK9 and Tubulin (load control) were determined by western blotting.\nChromatin Immunoprecipitation Sequencing. […] ChIP-seq reads were aligned to the Drosophila genome (UCSC dm3) or human genome (UCSC hgl9). Alignments were processed with Bowtie version 1.1.2, allowing only uniquely mapping reads with up to two mismatches within the 50 bp read. The resulting reads were extended to 150 bp toward the interior of the sequenced fragment and normalized to total reads aligned (reads per million, r.p.m.). […] P-values were calculated with a two-sided Kolmogorov-Smirnov test. […]"}, "MDA231-LM2 cells [2]": {"tested_on": "MDA231-LM2 cells", "test": "Colony formation of MDA231-LM2 cells in vitro", "type": "cell-based", "details": "5 days", "protocol": "(§1) FIG. 14, related to FIG. 7. SEC disruptors delay tumor progression and improve survival of MDA231-LM2 tumor mice. (A) KL-1 and KL-2 inhibit the colony formation of MDA231-LM2 cells in vitro. 5×10^3 MDA231-LM2 cells were seeded in 6-well plates and treated with KL-1 or KL-2 at the indicated doses for 5 days. Crystal violet staining was performed to stain the colonies. (B) KL-1 and KL-2 induce apoptosis in MDA231-LM2 cells. Bar graph depiction of Annexin V positive MDA231-LM2 cells after 24 hr of KL-1 and KL-2 treatments at the indicated concentrations. Data are represented as Mean+/−SD. […] Each individual line indicates the weights of each mouse during toxicity test."}, "MDA231-LM2 cells [3]": {"tested_on": "MDA231-LM2 cells", "test": "Annexin V apoptosis in MDA231-LM2 cells", "type": "cell-based", "details": "24 hr", "protocol": "as §1"}, "ELL2": {"tested_on": "ELL2", "test": "Western blotting of ELL2 protein levels in 293T cells", "type": "cell-based, human", "details": "20 μM, 6 hr", "text": "FIG. 10, related to FIG. 3. Disruption of SEC phenocopies slow Pol II mutants and reduces Pol II processivity. (A) Identification of the 1,057 genes with typical Pol II termination signals around the TES. Pol II signals from WT Pol II mutant expressing cells were K-means clustered into 5 groups with a window of 15 kb around the TES. The expressing genes from clusters with a typical Pol II termination signals were selected and plotted. (B) SEC inhibitor treatments of the WT Pol II mutant expressing cells lead to a Pol II phenotype similar to slower Pol II mutant expressing cells as viewed at the 3′-end of genes. (C-D) Time-dependent and dose-dependent shift of Pol II signals around the TES sites by KL-2 treatment (N=1,057). (E) Genome browser tracks of Serine 2 phosphorylated (Ser2P) Pol II at the SRSF1 gene in HEK293T cells treated with vehicle or SEC inhibitors. SEC inhibitor treatments result in increased Pol II occupancy at the promoter-proximal region and increased occupancy of Ser2P Pol II in the gene body. […] (H) SEC inhibition results in decreased protein levels of the SEC subunit ELL2. 293T cells were treated with 20 μM of the indicated inhibitors for 6 hr before harvesting cells for western blotting. (I-K) Depletion of ELL2 in HEK293T cells (I) results in apparent early termination of Pol II with reduced Pol II occupancy downstream of the PIM3 (J) and ACTB (K) annotated TES. […]"}},
  "data": [
    {"smiles": "COc1cccc(C(=O)CC(=O)C(=O)Nc2cc(Cl)ccc2C)c1", "note": "[KL-1, N-(5-chloro-2-methylphenyl)-4-oxo-4-(3-methoxyphenyl)-2-oxobutanamide]", "values": [
      {"measurement": "chromatin occupancy of AFF1 and AFF4", "setting": "[1]", "value": "decreased occupancy of AFF1 and AFF4"},
      {"measurement": "colony formation capability", "setting": "MDA231-LM2 cells [2]", "value": "could inhibit the colony formation capability"},
      {"measurement": "apoptosis (Annexin V staining)", "setting": "MDA231-LM2 cells [3]", "value": "increase apoptosis"},
      {"measurement": "ELL2 protein levels", "setting": "ELL2", "value": "led to reduced ELL2 protein levels"}
    ]}
  ]
}
